The values below come from patent US5880284A, “Cyclic urea derivatives, pharmaceutical compositions containing these compounds and processes for preparing them” (Dr. Karl Thomae GmbH, priority 1992, dated 1999).

The EC50 is the concentration that produces a half-maximal response. As a reminder, the IC50 is the concentration at which inhibition is half-maximal. Low readings indicate inhibition by little substance, high ones a need for much substance.

The subject of one series is thrombocyte aggregation. Briefly: Inhibition of collagen-induced platelet aggregation in platelet-rich plasma (Born and Cross). Type of series: cell-based. The settings on record: Homo sapiens, 10 min, read-out: Inhibition of platelet aggregation EC50.
Another series addresses human thrombocytes. Briefly: Inhibition of binding of 3H-BIBU 52 to human thrombocytes (fibrinogen-binding test). The settings on record: 3H-BIBU 52 final concentration 5 nM, plasma, 20 minutes, ambient temperature; 50% inhibition of binding.
Series [1] is described as follows: Tolerability after intravenous administration to mice. Type of series: in vivo.
The test system of another series is thrombocytes. Put plainly: Collagen-induced aggregation of thrombocytes ex vivo after oral administration. Type of series: in vivo. The settings on record: rhesus monkey, oral administration of 1 mg/kg. As to the method:
Moreover, the compound of Example 6(14), for example, inhibits the collagen-induced aggregation of thrombocytes in the rhesus monkey ex vivo after the oral administration of 1 mg/kg for up to four hours.

[2] abbreviates: collagen-induced, platelet-rich plasma, 10 minutes incubation at 37° C., 50% change in optical density.

Structures can show the parent of a compound that is named as a salt. Where two headings read alike, the source gives them in different places.

Experimental for human thrombocytes: Inhibition of Binding of ^3 H-BIBU 52 to Human Thrombocytes
A suspension of human thrombocytes in plasma is incubated with ^3 H-BIBU 52 [=(3S,5S)-5-[(4'-amidino-4-biphenylyl)oxymethyl]-3-[(carboxyl)methyl]-2-pyrrolidinone[^3 -^3 H-4-biphenylyl]] […] The free and bound ligand is separated by centrifuging and quantitatively determined by scintillation counting. From the measurements obtained, the inhibition of ^3 H-BIBU 52 binding by the test substance is determined.
In order to do this, donor blood is taken from an anticubital vein and anticoagulated by trisodium citrate (final concentration 13 mM). The blood is centrifuged for 10 minutes at 170×g and the supernatant platelet-rich plasma (PRP) is removed. The remaining blood is vigorously centrifuged once more in order to obtain plasma. The PRP is diluted 1:10 with autologous plasma. 750 μl are incubated with 50 μl of physiological saline solution, 100 μl of test substance solution, 50 μl of ^4 C-sucrose (3,700 Bq) and 50 μl of ^3 H-BIBU 52 (final concentration: 5 nM) at ambient temperature for 20 minutes. In order to measure non-specific binding, instead of the test substance, 5 μl of BIBU 52 are put in (final concentration: 30 μM). The samples are centrifuged for 20 seconds at 10,000×g and the supernatant is drawn off. 100 μl therof are measured in order to determine the free ligand. The pellet is dissolved in 500 μl of 0.2N NaOH, 450 μl are mixed with 2 ml of scintillator and 25 μl of 5N HCl and measured. The residual plasma remaining in the pellet is determined from the ^14 C content, the bound ligand from the ^3 H measurement. After subtracting the non-specific binding, the pellet activity is plotted against the concentration of the test substance and the concentration for a 50% inhibition of binding is determined.
Experimental for thrombocyte aggregation: The thrombocyte aggregatrion is measured using the Born and Cross method (J. Physiol. 170: 397 (1964)) in platelet-rich plasma taken from health volunteers. To inhibit coagulation the blood is mixed with 3.14% sodium citrate in a ratio by volume of 1:10.
Collagen-induced agaregation
The pattern of the decrease in optical density of the platelet suspension is photometrically measured and recorded after the addition of the aggregation-triggering substance. The rate of aggregation is concluded from the angle of inclination of the density curve. The point on the curve where there is maximum light transmittance is used to calculate the optical density.
The amount of collagen used is as small as possible but sufficient to produce an irreversible reaction curve. Standard commercial collagen produced by Hormonchemie of Munich is used.
Before the addition of the collagen the plasma is incubated for 10 minutes with the substance at 37° C.
From the measurements obtained an EC50 is determined graphically, indicating a 50% change in the optical density in terms of the inhibition of aggregation.

For `NCC1CCc2cc(N3CCN([C@H]4CC[C@H](C(=O)O)CC4)C3=O)ccc2C1` (relative stereo) [1(44), 1-(2-aminomethyl-1,2,3,4-tetrahydro-6-naphthyl)-3-(trans-4-carboxycyclohexyl)-imidazolidin-2-one-hydrochloride], the EC50 with thrombocyte aggregation (setting [2]) is 380 nM.

On to `Cc1nn(-c2ccc(C(=N)N)cc2)c(=O)n1-c1ccc(CC(C)C(=O)O)cc1` (centres unmarked) [1(1), 2-(4-amidinophenyl)-4-[4-(2-carboxy-1-propyl)phenyl]-5-methyl-4H-1,2,4-triazol-3-one×0.5 water], for which the IC50 on human thrombocytes was found to be 0.8 nM. In addition, the “Deaths after intravenous administration” value in series [1] (mouse, in vivo, iv, 30 mg/kg) is “none of the three animals tested died”. For the same compound, the EC50 in the series on thrombocyte aggregation (setting [2]) stood at 30 nM.

`N=C(N)c1ccc(-n2nc(-c3ccccc3)n(-c3ccc(CCC(=O)O)cc3)c2=O)cc1` [1(2), 2-(4-amidinophenyl)-4-[4-(2-carboxyethyl)phenyl]-5-phenyl-4H-1,2,4-triazol-3-one×2 water]: the IC50 at human thrombocytes was found to be 1.2 nM. The EC50 in the series on thrombocyte aggregation (setting [2]) was determined as 70 nM.

Consider `NC1CCCc2cc(N3CCN(c4ccc(CCC(=O)O)cc4)C3=O)ccc21` (centres unmarked) [1(3), 1-(1-amino-1,2,3,4-tetrahydronaphthalin-6-yl)-3-[4-(2-carboxyethyl)phenyl]-imidazolidin-2-one-hydrochloride], for which, at human thrombocytes, the IC50 was determined as 64 nM. Further, in the series with thrombocyte aggregation (setting [2]), the EC50 was 270 nM.

Regarding `Cc1nn(CCC2CCNCC2)c(=O)n1-c1ccc(CCC(=O)O)cc1` [1(4), 4-[4-(2-carboxyethyl)phenyl]-5-methyl-2-[2-(4-piperidinyl)ethyl]-4H-1,2,4-triazol-3-one-toluenesulphonate×water], the IC50 on human thrombocytes came to 280 nM. The “Deaths after intravenous administration” value in series [1] (mouse, in vivo, iv, 30 mg/kg) was “none of the three animals tested died”. In the series on thrombocyte aggregation (setting [2]), the EC50 turned out to be 500 nM.

In turn, `O=C(O)CCc1ccc(N2CCN(CCC3CCNCC3)C2=O)cc1` [1(6), 1-[4-(2-carboxyethyl)phenyl]-3-[2-(4-piperidinyl)ethyl]-imidazolidin-2-one-hydrochloride×water] gave an IC50 at human thrombocytes of 18 nM. In series [1] (mouse, in vivo, iv, 30 mg/kg), the “Deaths after intravenous administration” value is reported as “none of the three animals tested died”. Also, the EC50 in the series with thrombocyte aggregation (setting [2]) was 100 nM.

`CCCC(Cc1ccc(-n2c(C)nn(CCC3CCNCC3)c2=O)cc1)C(=O)O` (centres unmarked) [1(8), 4-[4-(2-carboxy-1-pentyl)phenyl]-5-methyl-2-(2-(4-piperidinyl)ethyl)-4H-1,2,4-triazol-3-one-hydrochloride]: on human thrombocytes, the IC50 was found to be 760 nM. Also, the EC50 in the series with thrombocyte aggregation (setting [2]) worked out at 1200 nM.

As for `CCCCS(=O)(=O)NC(Cc1ccc(N2CCN(c3ccc(C(=N)N)cc3)C2=O)cc1)C(=O)O` (centres unmarked) [1(21), 1-(4-amidinophenyl)-3-[4-[2-(n-butylsulfonylamino)-2-carboxy-ethyl]phenyl]-imidazolidin-2-one-hydrochloride], the IC50 at human thrombocytes stood at 1 nM. Also, the EC50 in the series with thrombocyte aggregation (setting [2]) was found to be 36 nM.

Consider `Cl.O=C(O)CC[C@H]1CC[C@H](N2CCN(CCC3CCNCC3)C2=O)CC1` [1(39), 1-[trans-4-(2-carboxyethyl)cyclohexyl]-3-[2-(4-piperidinyl)ethyl]-imidazolidin-2-one-hydrochloride], for which, on human thrombocytes, the IC50 is 25 nM. In addition, the “Deaths after intravenous administration” value in series [1] (mouse, in vivo, iv, 30 mg/kg) was “none of the three animals tested died”. Besides, the EC50 in the series with thrombocyte aggregation (setting [2]) was 86 nM.

`O=C1N(c2ccc(C34CCN(CC3)CC4)cc2)CCN1[C@H]1CC[C@H](C(=O)O)CC1` [1(50), 1-(trans-4-carboxycyclohexyl)-3-[4-(4-quinuclidinyl)-phenyl]-imidazolidin-2-one-hydrochloride×1.2 H2 O] had an IC50 on human thrombocytes of 65 nM. In addition, the 50% effective concentration (EC50) in the series with thrombocyte aggregation (Platelet) amounted to 170 nM.

`N=C(N)c1ccc(N2CCN(c3ccc(CCc4nnn[nH]4)cc3)C2=O)cc1` [2(5), 1-(4-amidinophenyl)-3-[4-[2-(5-tetrazolyl)ethyl]phenyl]-imidazolidin-2-one] registered an IC50 on human thrombocytes of 3500 nM. Moreover, the EC50 with thrombocyte aggregation (setting [2]) came to 3200 nM.

Compound `N=C(N)c1ccc(-n2ncn([C@H]3CC[C@H](CCC(=O)O)CC3)c2=O)cc1` [4(4), 2-(4-amidinophenyl)-4-[trans-4-(2-carboxyethyl)-cyclohexyl]-4H-1,2,4-triazol-3-one] gave an IC50 at human thrombocytes of 2.9 nM. The EC50 with thrombocyte aggregation (setting [2]) turned out to be 30 nM.

With `NCC1CCC(N2CCN(c3ccc(CCC(=O)O)cc3)C2=O)CC1` (centres unmarked) [4(5), 1-[4-(aminomethyl)cyclohexyl]-3-[4-(2-carboxyethyl)phenyl]-imidazolidin-2-one], the IC50 at human thrombocytes stood at 4100 nM. Also, in the series with thrombocyte aggregation (setting [2]), the EC50 turned out to be 3300 nM.

`O=C(O)C=Cc1ccc(N2CCN(CCC3CCNCC3)C2=O)c(F)c1` [4(13), 1-[4-(2-carboxyethenyl)-2-fluoro-phenyl]-3-[2-(4-piperidinyl)ethyl]-imidazolidin-2-one×1.1 HCl×1 H2 O]: the IC50 on human thrombocytes amounted to 250 nM. Also, the EC50 with thrombocyte aggregation (setting [2]) amounted to 300 nM.

At human thrombocytes, `Cc1nn(-c2ccc(C(=N)N)cc2)c(=O)n1-c1cccc(CCC(=O)O)c1` [5(2), 2-(4-amidinophenyl)-4-[3-(2-carboxyethyl)phenyl]-5-methyl-4H-1,2,4-triazol-3-one] returned an IC50 of 720 nM. For the same compound, in the series on thrombocyte aggregation (setting [2]), the EC50 was determined as 840 nM.

Compound `CCOC(=O)CCc1ccc(N2CCN(CCC3CCNCC3)C2=O)cc1` [6(34), 1-[4-[2-(ethoxycarbonyl)ethyl]phenyl]-3-(2-(4-piperidinyl)ethyl]-imidazolidin-2-one-hydrochloride] displayed an IC50 at human thrombocytes of 21000 nM. For the same compound, the EC50 with thrombocyte aggregation (setting [2]) was determined as 350 nM.

The compound `CCOC(=O)CC[C@H]1CC[C@H](N2CCN(CCC3CCNCC3)C2=O)CC1` [6(35), 1-[trans-4-[2-(ethoxycarbonyl)ethyl]cyclohexyl]-3-[2-(4-piperidinyl)ethyl]-imidazolidin-2-one-hydrochloride] yielded an IC50 at human thrombocytes of 5700 nM. Also, the EC50 in the series on thrombocyte aggregation (setting [2]) was 630 nM.

For the compound `CCOC(=O)CCc1ccc(N2CCN(CCC34CCN(CC3)CC4)C2=O)cc1` [6(37), 1-[2-(4-quinuclidinyl)ethyl]-3-[4-[2-(ethoxycarbonyl)-ethyl]phenyl]-imidazolidin-2-one-hydro-chloride], the IC50 on human thrombocytes is 7100 nM. Also, the EC50 in the series on thrombocyte aggregation (Platelet) amounted to 380 nM.

In turn, `CCOC(=O)[C@H]1CC[C@H](N2CCN(c3ccc(C4CCNCC4)cc3)C2=O)CC1` [6(40), 1-[trans-4-(ethoxycarbonyl)cyclohexyl]-3-[4-(4-piperidinyl)phenyl]-imidazolidin-2-one-hydrochloride] registered an IC50 on human thrombocytes of 2500 nM. Also, the EC50 in the series on thrombocyte aggregation (setting [2]) came to 240 nM.

Take `O=C1N(C2CCC(C3CCNCC3)CC2)CCN1[C@H]1CC[C@H](C(=O)O)CC1` (some centres unmarked) [18(2)]: the EC50 with thrombocyte aggregation (setting [2]) stood at 110 nM.

At human thrombocytes, `N#CC1(c2ccc(N3CCN(CCCCC(=O)O)C3=O)cc2)CCNCC1` [24(1), 1-(4-carboxybutyl)-3-[4-(4-cyano-4-piperidinyl)-phenyl]-imidazolidin-2-one] returned an IC50 of 150 nM. For the same compound, the EC50 in the series on thrombocyte aggregation (setting [2]) stood at 940 nM.

Turning to `CC1(c2ccc(N3CCN([C@H]4CC[C@H](C(=O)O)CC4)C3=O)cc2)CCNCC1` [24(2), 1-(trans-4-carboxycyclohexyl)-3-[4-(4-methyl-4-piperidinyl)phenyl]-imidazolidin-2-one], the EC50 in the series on thrombocyte aggregation (setting [2]) stood at 71 nM.

With `O=C(O)CO[C@H]1CC[C@H](N2CCN(CCC3CCNCC3)C2=O)CC1` [30(4), 1-[trans-4-[(carboxymethyl)oxy]cyclohexyl]-3-[2-(4-piperidinyl)ethyl]-imidazolidin-2-one-hydrochloride×0.3 H2 O], at human thrombocytes, the IC50 worked out at 200 nM. For the same compound, in the series on thrombocyte aggregation (setting [2]), the EC50 came to 490 nM.

In the case of `Cc1nn(-c2ccc(C(=N)N)cc2)c(=O)n1[C@H]1CC[C@@H](CCC(=O)O)CC1` [Example 4, 2-(4-Amidinophenyl)-4-[cis-4-(2-carboxyethyl)cyclo-hexyl]-5-methyl-4H-1,2,4-triazol-3-one], the EC50 in the series with thrombocyte aggregation (setting [2]) came to 130 nM.

With `Cc1nn(-c2ccc(C(=N)N)cc2)c(=O)n1-c1ccc(CCC(=O)OC2CCCCC2)cc1.Cl` [Example 6(14), 2-(4-amidinophenyl)-4-[4-[2-(cyclohexyloxycarbonyl)-ethyl]phenyl]-5-methyl-4H-1,2,4-triazol-3-one-hydrochloride], the IC50 on human thrombocytes came to 250 nM. Also, in the series on thrombocytes, the “Duration of inhibition of collagen-induced aggregation of thrombocytes ex vivo” value is “up to four”. Moreover, the EC50 in the series on thrombocyte aggregation (setting [2]) stood at 40 nM.

At human thrombocytes, `CN1CCC(CCN2CCN(c3ccc(CCC(=O)O)cc3)C2=O)CC1` [Example 15] showed an IC50 of 12000 nM. In addition, the EC50 with thrombocyte aggregation (setting [2]) stood at 4300 nM.

The compound `Cl.O=C1N(c2ccc(C3CCNCC3)cc2)CCN1[C@H]1CC[C@H](C(=O)O)CC1` [Example 17, 1-(trans-4-Carboxycyclohexyl)-3-[4-(4-piperidinyl)phenyl]-imidazolidin-2-one-hydrochloride] yielded an IC50 at human thrombocytes of 16 nM. The “Deaths after intravenous administration” value in series [1] (mouse, in vivo, iv, 30 mg/kg) is on record as “none of the three animals tested died”. Also, the EC50 in the series with thrombocyte aggregation (setting [2]) is 43 nM.

`Cl.O=C(O)CCc1ccc(N2CCN(CCC34CCN(CC3)CC4)C2=O)cc1` [Example 26, 1-[4-(2-Carboxyethyl)phenyl]-3-[2-(4-quinuclidinyl)ethyl]-imidazolidin-2-one-hydrochloride] displayed an IC50 at human thrombocytes of 26 nM. Further, in series [1] (mice, 30 mg/kg intravenous, three animals), the “Deaths after intravenous administration” value was “none of the three animals tested died”. The EC50 with thrombocyte aggregation (Platelet) came to 84 nM.
